According to patent US4551455A, “Method of treating high blood pressure using 6-[4-(1-imidazolyl)-phenyl]-5-methyl-3-oxo-tetrahydropyridazines” (A. Nattermann & Cie GmbH, priority 1982, dated 1985):
Like-named read-outs stand apart in the source and are kept apart here.

Legend:
[1] = test system: normotensive Wistar rats; test: blood pressure-lowering effect on narcotized rats; format: in vivo, rat (male adult normotensive Wistar); settings: for Average arterial pressure / Heart frequency: rats, 3.16 mg/kg orally, n = 5, narcotized 90 min after application; for Average arterial pressure: control 112.8 ± 4.8; for Heart frequency: control 307 ± 11
Experimental: (§1) For investigation of the pharmacodynamic properties, the following methods (1) through (4) were employed.
(1) The blood pressure-lowering effect on narcotized rats was evaluated. For testing of the blood pressure-lowering effect, the invention substance 6-[4-(imidazolyl)phenyl]-5-methyl-3-oxo-2,3,4,5-tetrahydropyridazine (A) was administered in parallel with the reference substance 1-hydrazinophthalazine (hydralazine) (C) orally to groups of 5 male adult normotensive Wistar rats. Ninety minutes after application, the animal was narcotized with 75 mg/kg of intraperitoneal phenobarbital, and the trachea and the carotid artery were cannulated.

[2] = test system: anaesthetized dogs; test: blood pressure-lowering effect on anaesthetized dogs; format: in vivo, dog; settings: for influence on blood pressure (in words): Table 2, anaesthetized dogs; for Pressure, Δ mmHg, diastolic / Pressure, Δ mmHg, systolic: anaesthetized dogs, 0.316 mg/kg intraduodenally, change in pressure
Experimental: as §1
(2) The blood pressure-lowering effect on anaesthetized dogs was evaluated. The influence on the systolic and diastolic blood preessure of the subject compounds 6-[4-(1-imidazolyl)phenyl]-5-methyl-3-oxo-2,3,4,5-tetrahydropyridazine (A) and 6-[4-(2-methyl-1-imidazolyl)-phenyl]-5-methyl-3-oxo-2,3,4,5-tetrahydropyridazine (B) were studied on the anaesthetized dogs by intraduodenal administration.

[3] = test system: collagen-induced thrombocyte aggregation; test: inhibition of collagen-induced thrombocyte aggregation in vitro (method of Born, modified); format: cell-based, human; settings: read-out: IC50 (concentration that caused a 50% reduction of the aggregation)
Experimental: as §1
(3) The inhibition of collagen-induced thrombocyte aggregation in vitro was evaluated. The suppression of collagen-induced thrombocyte aggregation in vitro was carried out on thrombocyte-rich human plasma with the inventive substance 6-[4-(1-imidazolyl)-phenyl]-5-methyl-3-oxo-2,3,4,5-tetrahydropyridazine (A) in parallel with the reference substance acetylsalicyclic acid (D) according to the method of Born (Nature, 194, 927-929 (1962)) in modified form (simultaneous application). The concentration that caused a 50% reduction of the aggregation was defined as IC50 in Table 3 set forth below.

[4] = test system: thrombin formation; test: reduction of thrombin formation in narcotized rats; format: in vivo, rat
Experimental: as §1
(4) The reduction of thrombin formation in narcotized rats was evaluated. The test of the reduction of thrombin formation by the substances of the present invention 6-[4-(1-imidazolyl)phenyl]-5-methyl-3-oxo-2,3,4,5-tetrahydropyridazine (A) and 6-[4-(2-methyl-1-imidazolyl)-phenyl]-5-methyl-3-oxo-2,3,4,5-[…] (B) in parallel with the reference substance acetylsalicylic acid (D) was carried out by oral administration to narcotized rats.

Row | SMILES | blood pressure-lowering effect on the rats (in words) ([1]; Table 1, in comparison with hydralazine C) | Average arterial pressure [1] [mmHg] | Heart frequency [1] [beats/min.] | influence on blood pressure (in words) [2] | Pressure, Δ mmHg, diastolic [2] [mmHg] | Pressure, Δ mmHg, systolic [2] [mmHg] | IC50 ([3]; thrombocyte-rich human plasma, collagen-induced, simultaneous application) [nM] | Reduction in % (thrombin formation) ([4]; 10 mg/kg orally) [%] | IC50 ([3]; Homo sapiens) [nM] | Reduction in % (thrombin formation) ([4]; 100 mg/kg orally) [%]
1 | CC1CC(=O)NN=C1c1ccc(-n2ccnc2)cc1 (stereo not shown) [Substance A, 6-[4-(1-imidazolyl)phenyl]-5-methyl-3-oxo-2,3,4,5-tetrahydropyridazine] | powerful blood pressure-lowering effect | 54.8 ± 8.9 | 415 ± 17 | strong influence on blood pressure | -51.42 | -51.77 | 2400 | -52 |  | 
2 | Cc1nccn1-c1ccc(C2=NNC(=O)CC2C)cc1 (stereo not shown) [Substance B, 6-[4-(2-methyl-1-imidazolyl)-phenyl]-5-methyl-3-oxo-2,3,4,5-tetrahydropyridazine] |  |  |  | strong influence on blood pressure | -43.80 | -48.18 |  | -48 |  | 
3 | NNc1nncc2ccccc12 [Substance C, 1-hydrazinophthalazine, reference compound] |  | 82.0 ± 6 | 356 ± 8 |  |  |  |  |  |  | 
4 | CC(=O)Oc1ccccc1C(=O)O [Substance D, acetylsalicylic acid, reference compound] |  |  |  |  |  |  |  |  | > 300000 | -45
